Laboratory results published in EP0326922A2 (priority 1988, dated 1989).
In brackets after ≈: the same amount, converted by molar mass.

Legend:
[1] = solvents in which the substance dissolves, in words
[2] = test system: Fusarium culmorum 100; experiment: MIC (MHK) determination; assay type: cell-based; conditions: read-out: MHK-Werte
[3] = test system: Candida albicans; experiment: MIC (MHK) determination; assay type: cell-based; conditions: read-out: MHK-Werte
[4] = test system: Alternaria solani 5; experiment: MIC (MHK) determination; assay type: cell-based; conditions: read-out: MHK-Werte
[5] = test system: Botrytis cinerea 16; experiment: MIC (MHK) determination; assay type: cell-based; conditions: read-out: MHK-Werte
[6] = test system: Cercospora beticola 71; experiment: MIC (MHK) determination; assay type: cell-based; conditions: read-out: MHK-Werte
[7] = test system: Staph. aureus 209 P; experiment: MIC (MHK) determination; assay type: cell-based; conditions: Staphylococcus aureus, read-out: MHK-Werte
[8] = test system: Saccharomyces cerevisiae; experiment: MIC (MHK) determination; assay type: cell-based; conditions: read-out: MHK-Werte
[9] = test system: Botrytis cinerea 47; experiment: MIC (MHK) determination; assay type: cell-based; conditions: read-out: MHK-Werte
[10] = test system: E. coli 9632; experiment: MIC (MHK) determination; assay type: cell-based; conditions: Escherichia coli, read-out: MHK-Werte
[11] = test system: Hefe 5060; experiment: MIC (MHK) determination; assay type: cell-based; conditions: read-out: MHK-Werte
[12] = test system: Botrytis cinerea 57; experiment: MIC (MHK) determination; assay type: cell-based; conditions: read-out: MHK-Werte
[13] = test system: Penicillium digitatum 135; experiment: MIC (MHK) determination; assay type: cell-based; conditions: read-out: MHK-Werte
[14] = test system: Pyricularia oryzae 154; experiment: microbe, parasite or virus in culture; assay type: cell-based; conditions: Pyricularia oryzae, 154, read-out: MHK-Werte
[15] = test system: Aspergillus niger; experiment: MIC (MHK) determination; assay type: cell-based; conditions: read-out: MHK-Werte
[16] = test system: Cladosporuim resinae; experiment: MIC (MHK) determination; assay type: cell-based; conditions: read-out: MHK-Werte
[17] = test system: Trichophyton mentagrophytes; experiment: MIC (MHK) determination; assay type: cell-based; conditions: read-out: MHK-Werte

SMILES | Löslichkeit [1] | MIC [2] | MIC [3] | MIC [4] | MIC [5] | MIC [6] | MIC [7] | MIC [8] | MIC [9] | MIC [10] | MIC [11] | MIC [12] | MIC [13] | MIC [14] | MIC [15] | MIC [16] | MIC [17]
COC(=O)/C=C(/C=C/C(C)C/C=C/CC/C=C/C=C\CC(OC)/C(C)=C\C=C(/C)C(=O)OC)CC(=O)OC (stereo not drawn) [Isobongkrekinsäure-trimethylester] | CHCl3, CH2Cl2,MeOH, Aceton, Äthylacetat und Petroläther | – | – | – | – | – | – | – | – | – | – | – | – | – | – | – | –
COC(C/C=C\C=C\CC/C=C/CC(C)/C=C/C(=C/C(=O)O)CC(=O)O)/C(C)=C\C=C(/C)C(=O)O (stereo not drawn) [Isobongkrekinsäure, 3-Carboxymethyl-17-methoxy-6,18,21-trimethyldocosa-2E,4E,8E,12E,14Z,18Z,20E-hepta-en-1,22-disäure] | Wäßriges Alkali, schwerlöslich in MeOH und Wasser | 7.8 µg/mL (≈ 16 µM) | > 125 µg/mL | 62.5 µg/mL (≈ 128 µM) | 62.5 µg/mL (≈ 128 µM) | 15.6 µg/mL (≈ 32.1 µM) | 125 µg/mL (≈ 257 µM) | > 125 µg/mL | 15.6 µg/mL (≈ 32.1 µM) | > 125 µg/mL | > 125 µg/mL | 31.2 µg/mL (≈ 64.1 µM) | 62.5 µg/mL (≈ 128 µM) | 31.2 µg/mL (≈ 64.1 µM) | 62.5 µg/mL (≈ 128 µM) | 250 µg/mL (≈ 514 µM) | 125 µg/mL (≈ 257 µM)
